Read-outs that look alike come from different tables or passages of the source.
Assays:
hDGKalpha(1-735)-N-His = hDGKalpha(1-735)-N-His (Homo sapiens (Human), UniProt P23743); experiment: DGKalpha ADP Glo assay (in vitro DGK inhibition); format: biochemical; conditions: DLG 125 uM, ATP 25 μM, DGK α 4 nM, 1 hour reaction
Experimental: (§1) DGK α and ζ kinase use ATP to phosphorylate the substrate 1,2-dilauroyl-sn-glycerol (DLG, incorporated in the liposomes). ATP is converted to ADP as a result of this enzymatic reaction. After the kinase reaction, an ATP-depletion reagent is added to terminate the kinase reaction and deplete any remaining ATP, leaving only ADP. Second, a detection reagent is added to simultaneously convert ADP to ATP and allow the newly synthesized ATP to be converted to light using a coupled luciferase/luciferin reaction.
(§2) Purification of both enzymes was performed as previously described by Takahashi et al., PeerJ, 2018 (Takahashi, D.; Sakane, F. Expression and purification of human diacylglycerol kinase alpha from baculovirus-infected insect cells for structural studies. PeerJ 2018, 6, No. e5449).
(§3) A concentrated liposome solution was prepared in assay buffer without DTT and BSA: 2 mM of DLG in 21 mM of total liposome (2 mM DLG/8 mM PS/11 mM PC). […] The reactions were started by addition of DGK α and ζ kinases at 4 nM and 2 nM final concentrations, respectively. After 1 hour reaction, the amount of ADP formed was detected with the ADP-Glo kinase assay (Promega) according to the manufacturer instructions. Compounds were added in 11-points dose response, starting at […], 1:3 dilutions, with a final DMSO concentration of 2%. The multidrop combi was used as a liquid handler and luminescence was read with 0.5 s by the envision reader (PE).

hDGKzeta(1-928)-N-His = hDGKzeta(1-928)-N-His (Homo sapiens (Human), UniProt Q13574); experiment: DGKzeta ADP Glo assay (in vitro DGK inhibition); format: biochemical; conditions: DLG 125 uM, ATP 50 μM, DGK ζ 2 nM, 1 hour reaction
Experimental: as §1, §2, §3

primary human T-cells [1] = experiment: Proliferation assay after 5 days (CellTiter-Glo, CD3 stimulation; PBS counter screen); format: cell-based; conditions: CD3 stimulation; for Emax proliferation (% activation) / Emax: 5 days, normalized to reference compound A1 as stimulator control = 100%, DMSO neutral control; for EC50: primary human T-cells, CellTiter-Glo after 5 days, EC50 of fitted sigmoidal curve, read-out: Tcell Proliferation CD3 EC50; for Emax: read-out: Emax proliferation (% activation)
In short: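 Proliferation is measured 5 days post-treatment as ATP-dependent luminescence. Flags mark compounds that activated unstimulated cells or harmed viability.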

MV-3 cells = experiment: T-cell - TCB - MV3 killing assay (MCSP-TCB, RFP object count by Incucyte); format: cell-based, human; conditions: 5 d; for Emax / MSCP TCB killing MV-3 cells 5 d Emax: normalized: MCSP-TCB only = neutral control, 20 μM reference compound A1 = 100%; for Emax: read-out: MSCP TCB killing MV-3 cells 5 d Emax; for EC50: primary human T-cells + MCSP-TCB, MV-3 RFP cells, read-out: MSCP TCB killing MV-3 cells 5 d EC50
primary human T-cells [2] = test system: primary human T-cells

Sequence of hDGKzeta(1-928)-N-His (Q13574 whole entry): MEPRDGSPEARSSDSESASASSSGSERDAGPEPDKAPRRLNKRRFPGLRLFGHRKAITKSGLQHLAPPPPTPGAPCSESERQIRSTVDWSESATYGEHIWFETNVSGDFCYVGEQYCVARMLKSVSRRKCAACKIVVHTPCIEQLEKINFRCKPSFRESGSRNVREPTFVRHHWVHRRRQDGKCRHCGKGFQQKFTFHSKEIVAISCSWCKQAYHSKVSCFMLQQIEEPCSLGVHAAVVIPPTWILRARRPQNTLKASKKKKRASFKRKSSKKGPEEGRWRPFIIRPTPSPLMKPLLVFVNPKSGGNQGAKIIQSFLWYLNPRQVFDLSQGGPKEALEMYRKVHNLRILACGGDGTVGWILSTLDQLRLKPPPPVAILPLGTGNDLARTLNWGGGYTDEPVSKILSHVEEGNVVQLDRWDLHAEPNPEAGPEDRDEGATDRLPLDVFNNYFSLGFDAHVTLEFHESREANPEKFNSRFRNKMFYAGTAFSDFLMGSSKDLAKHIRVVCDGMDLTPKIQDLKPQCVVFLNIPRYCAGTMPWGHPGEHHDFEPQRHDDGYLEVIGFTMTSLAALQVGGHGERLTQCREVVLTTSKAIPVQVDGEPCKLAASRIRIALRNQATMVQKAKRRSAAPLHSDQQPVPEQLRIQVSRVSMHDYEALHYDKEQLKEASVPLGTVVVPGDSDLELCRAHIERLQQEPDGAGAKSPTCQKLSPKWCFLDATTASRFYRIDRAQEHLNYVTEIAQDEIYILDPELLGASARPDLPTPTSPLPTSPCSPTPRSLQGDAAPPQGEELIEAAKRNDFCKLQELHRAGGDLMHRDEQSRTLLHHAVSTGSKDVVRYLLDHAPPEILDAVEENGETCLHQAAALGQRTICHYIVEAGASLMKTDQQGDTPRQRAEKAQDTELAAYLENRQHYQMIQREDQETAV
Sequence of hDGKalpha(1-735)-N-His (P23743 whole entry): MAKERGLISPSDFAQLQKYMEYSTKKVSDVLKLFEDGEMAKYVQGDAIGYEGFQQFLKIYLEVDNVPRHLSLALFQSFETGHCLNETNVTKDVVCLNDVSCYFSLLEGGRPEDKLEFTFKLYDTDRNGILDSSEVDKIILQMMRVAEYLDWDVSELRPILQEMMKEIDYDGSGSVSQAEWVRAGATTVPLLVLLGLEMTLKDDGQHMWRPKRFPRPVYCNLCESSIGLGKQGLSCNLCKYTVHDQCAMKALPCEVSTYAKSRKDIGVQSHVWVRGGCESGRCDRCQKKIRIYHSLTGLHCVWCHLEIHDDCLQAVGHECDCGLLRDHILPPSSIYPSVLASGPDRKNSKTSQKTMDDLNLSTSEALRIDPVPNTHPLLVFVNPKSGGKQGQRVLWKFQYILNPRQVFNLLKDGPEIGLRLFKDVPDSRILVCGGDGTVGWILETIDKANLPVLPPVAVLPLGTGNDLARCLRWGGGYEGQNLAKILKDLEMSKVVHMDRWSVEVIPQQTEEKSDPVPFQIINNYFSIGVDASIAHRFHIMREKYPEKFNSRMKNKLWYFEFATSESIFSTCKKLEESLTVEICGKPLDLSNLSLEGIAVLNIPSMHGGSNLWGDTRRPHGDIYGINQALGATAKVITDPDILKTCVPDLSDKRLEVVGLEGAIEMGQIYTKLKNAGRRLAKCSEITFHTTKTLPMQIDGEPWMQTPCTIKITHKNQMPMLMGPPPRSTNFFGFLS

Row | Structure (SMILES) | IC50 (hDGKalpha(1-735)-N-His) | IC50 (hDGKzeta(1-928)-N-His) | EC50 (primary human T-cells [2]) | Emax proliferation (% activation) (primary human T-cells [1]) | EC50 (primary human T-cells [1]) | Emax (MV-3 cells; Homo sapiens, MV-3, 120 h) | EC50 (MV-3 cells) | MSCP TCB killing MV-3 cells 5 d Emax (MV-3 cells) | EC50 (MV-3 cells; Homo sapiens, MV-3, 120 h) | EC50 (primary human T-cells [1]; Homo sapiens, T-cell, 120 h) | Emax (primary human T-cells [1]; Homo sapiens, T-cell, 120 h)
1 | N[C@H]1C[S+]([O-])c2cc(F)c(-c3noc(N4CCOC5CC54)n3)cc2N(Cc2ccc(Cl)cc2)C1=O (single isomer, unassigned; epimer a) [Example 207] | > 62.5 µM | 0.193 µM | 4.38 µM | 280 % activation | 1.86 µM | 90% |  |  | 0.16 µM |  | 
2 | CC(C)(C)c1nc(-c2cc3c(cc2F)S(=O)(=O)C[C@H](N)C(=O)N3Cc2ccc(F)cc2)no1 [Example 357, (3R)-3-amino-7-(5-tert-butyl-1,2,4-oxadiazol-3-yl)-8-fluoro-5-[(4-fluorophenyl)methyl]-1,1-dioxo-2,3-dihydro-1λ^6,5-benzothiazepin-4-one] | 0.403 µM | 0.114 µM | 3 µM |  |  |  |  |  |  | 1.14 µM | 386%
3 | N[C@H]1CS(=O)(=O)c2ccc(-c3nnc(C4CCCC(F)(F)C4)o3)cc2N(Cc2ccc(Cl)cc2)C1=O (stereo partly drawn) [Example 373, (3R)-3-amino-5-[(4-chlorophenyl)methyl]-7-[5-(3,3-difluorocyclohexyl)-1,3,4-oxadiazol-2-yl]-1,1-dioxo-2,3-dihydro-1λ^6,5-benzothiazepin-4-one] | 1.41 µM | 0.644 µM | 1.16 µM |  |  |  |  |  |  | 0.556 µM | 100%
4 | Cc1cc(S(C)(=O)=O)ccc1-c1nnc(-c2ccc3c(c2)N(Cc2ccc(Cl)cc2)C(=O)[C@@H](N)CS3(=O)=O)o1 [Example 379, (3R)-3-amino-5-[(4-chlorophenyl)methyl]-7-[5-(2-methyl-4-methylsulfonyl-phenyl)-1,3,4-oxadiazol-2-yl]-1,1-dioxo-2,3-dihydro-1λ^6,5-benzothiazepin-4-one] | 42.7 µM | 1.3 µM | 2.09 µM |  |  |  |  |  |  | 4.85 µM | 69%
5 | COCCN1CCCC(F)(c2nnc(-c3ccc4c(c3)N(Cc3ccc(Cl)cc3)C(=O)[C@@H](N)CS4(=O)=O)o2)C1 (stereo partly drawn) [Example 386, (3R)-3-amino-5-[(4-chlorophenyl)methyl]-7-[5-[3-fluoro-1-(2-methoxyethyl)-3-piperidyl]-1,3,4-oxadiazol-2-yl]-1,1-dioxo-2,3-dihydro-1λ^6,5-benzothiazepin-4-one] | 3.57 µM | 0.778 µM | 4.87 µM |  |  |  |  |  |  | 2.27 µM | 108%
6 | Cc1ccc(-c2nnc(-c3ccc4c(c3)N(Cc3ccc(Cl)cc3)C(=O)[C@@H](N)CS4(=O)=O)o2)cn1 [Example 390, (3R)-3-amino-5-[(4-chlorophenyl)methyl]-7-[5-(6-methyl-3-pyridyl)-1,3,4-oxadiazol-2-yl]-1,1-dioxo-2,3-dihydro-1λ^6,5-benzothiazepin-4-one] | 38.5 µM | 2.63 µM | > 10 µM |  |  |  |  |  |  | 4.51 µM | 69%
7 | N[C@H]1CS(=O)(=O)c2ccc(-c3nnc(N4[C@@H]5CC[C@H]4COC5)o3)cc2N(Cc2ccc(Cl)cc2)C1=O [Example 407, (3R)-3-amino-5-[(4-chlorophenyl)methyl]-7-[5-[(1R,5S)-3-oxa-8-azabicyclo[3.2.1]octan-8-yl]-1,3,4-oxadiazol-2-yl]-1,1-dioxo-2,3-dihydro-1λ^6,5-benzothiazepin-4-one] | 1.42 µM | 2.66 µM | > 10 µM |  |  |  |  |  |  | 2.81 µM | 96%
8 | COC(=O)N1CCC(c2nnc(-c3ccc4c(c3)N(Cc3ccc(OC5CCCC5)cc3)C(=O)[C@@H](N)CS4(=O)=O)o2)C1 (stereo partly drawn) [Example 444, methyl 3-[5-[(3R)-3-amino-5-[[4-(cyclopentoxy)phenyl]methyl]-1,1,4-trioxo-2,3-dihydro-1λ^6,5-benzothiazepin-7-yl]-1,3,4-oxadiazol-2-yl]pyrrolidine-1-carboxylate] | 6.11 µM | 1.91 µM | > 10 µM |  |  |  |  |  |  | 2.37 µM | 99%

Continued, in another order:

Row | IC50 (hDGKalpha(1-735)-N-His) | IC50 (hDGKzeta(1-928)-N-His) | EC50 (primary human T-cells [2]) | Structure (SMILES) | Emax proliferation (% activation) (primary human T-cells [1]) | EC50 (primary human T-cells [1]) | Emax (MV-3 cells; Homo sapiens, MV-3, 120 h) | EC50 (MV-3 cells) | MSCP TCB killing MV-3 cells 5 d Emax (MV-3 cells) | EC50 (MV-3 cells; Homo sapiens, MV-3, 120 h) | EC50 (primary human T-cells [1]; Homo sapiens, T-cell, 120 h) | Emax (primary human T-cells [1]; Homo sapiens, T-cell, 120 h)
9 | 0.272 µM | 0.316 µM | 0.299 µM | CC(C)(C)c1nnc(-c2cc3c(cc2F)S(=N)(=O)C[C@H](N)C(=O)N3Cc2ccc(OC(F)(F)F)cc2)o1 (single isomer, unassigned) [Example 517] | 90 % activation | 2.93 µM | 79% | 0.33 µM |  |  |  | 
10 | 0.442 µM | 0.639 µM | 0.135 µM | CC(C)(C)c1nnc(-c2cc3c(cc2F)S(=N)(=O)C[C@H](N)C(=O)N3Cc2ccc(OC(F)(F)F)cc2)o1 (single isomer, unassigned) [Example 518] | 58 % activation | 9.07 µM |  | 0.96 µM | 78% |  |  | 
11 | 0.34 µM | 0.4 µM | 0.121 µM | CC(C)(C)c1nnc(-c2cc3c(cc2F)[S+]([O-])C[C@H](N)C(=O)N3Cc2ccc(OC(F)(F)F)cc2)o1 (single isomer, unassigned; epimer a) [Example 452] | 165 % activation |  |  | 0.23 µM | 81% |  | 0.468 µM | 
12 | 0.797 µM | 1.34 µM | 0.701 µM | CC(C)(C)c1nnc(-c2ccc3c(c2)N(Cc2ccc(Oc4ccccc4)cc2)C(=O)[C@@H](N)CS3(=O)=O)o1 [Example 438, (3R)-3-amino-7-(5-tert-butyl-1,3,4-oxadiazol-2-yl)-1,1-dioxo-5-[(4-phenoxyphenyl)methyl]-2,3-dihydro-1λ^6,5-benzothiazepin-4-one] |  |  |  |  |  |  | 0.246 µM | 78%
13 | 1.39 µM | 0.285 µM | 0.148 µM | CC(C)(C)c1nnc(-c2ccc3c(c2)N(Cc2ccc(OC(F)(F)C(F)F)cc2)C(=O)[C@@H](N)CS3(=O)=O)o1 [Example 442, (3R)-3-amino-7-(5-tert-butyl-1,3,4-oxadiazol-2-yl)-1,1-dioxo-5-[[4-(1,1,2,2-tetrafluoroethoxy)phenyl]methyl]-2,3-dihydro-1λ^6,5-benzothiazepin-4-one] |  |  |  |  |  |  | 0.24 µM | 134%
14 | 3 µM | 0.338 µM | 0.783 µM | N[C@H]1CS(=O)(=O)c2cc(F)c(-c3noc(C4(CO)CCCO4)n3)cc2N(Cc2ccc(Oc3ccccc3)cc2)C1=O (stereo partly drawn) [Example 521, (3R)-3-amino-8-fluoro-7-[5-[2-(hydroxymethyl)tetrahydrofuran-2-yl]-1,2,4-oxadiazol-3-yl]-1,1-dioxo-5-[(4-phenoxyphenyl)methyl]-2,3-dihydro-1λ^6,5-benzothiazepin-4-one] |  |  |  |  |  |  | 0.622 µM | 189%
15 | 4.07 µM | 0.529 µM | 0.619 µM | CN1CCCC(F)(c2nc(-c3cc4c(cc3F)S(=O)(=O)C[C@H](N)C(=O)N4Cc3ccc(Oc4ccccc4)cc3)no2)C1 (stereo partly drawn) [Example 522, (3R)-3-amino-8-fluoro-7-[5-(3-fluoro-1-methyl-3-piperidyl)-1,2,4-oxadiazol-3-yl]-1,1-dioxo-5-[(4-phenoxyphenyl)methyl]-2,3-dihydro-1λ^6,5-benzothiazepin-4-one] |  |  |  |  |  |  | 0.782 µM | 161%
16 | 1.29 µM | 1.51 µM | 5.28 µM | CC(C)(C)c1nnc(-c2cc3c(cc2Cl)S(=O)(=O)C[C@H](N)C(=O)N3Cc2ccc(Cl)cc2)o1 [Example 523, (3R)-3-amino-7-(5-tert-butyl-1,3,4-oxadiazol-2-yl)-8-chloro-5-[(4-chlorophenyl)methyl]-1,1-dioxo-2,3-dihydro-1λ^6,5-benzothiazepin-4-one] |  |  |  |  |  |  | 0.462 µM | 45%

Source: patent US20240368150A1 (Hoffmann-La Roche Inc., priority 2021, published 2024)
